Source: ChEMBL document CHEMBL1142802, “L-arginine analogs as alternate substrates for nitric oxide synthase” (Bioorg Med Chem Lett, 2005)

Target: Nitric oxide synthase, inducible (Homo sapiens, UniProt P35228)
Experiment: Binding affinity towards inducible nitric oxide synthase

Nitric oxide synthase, inducible, sequence (P35228 whole entry): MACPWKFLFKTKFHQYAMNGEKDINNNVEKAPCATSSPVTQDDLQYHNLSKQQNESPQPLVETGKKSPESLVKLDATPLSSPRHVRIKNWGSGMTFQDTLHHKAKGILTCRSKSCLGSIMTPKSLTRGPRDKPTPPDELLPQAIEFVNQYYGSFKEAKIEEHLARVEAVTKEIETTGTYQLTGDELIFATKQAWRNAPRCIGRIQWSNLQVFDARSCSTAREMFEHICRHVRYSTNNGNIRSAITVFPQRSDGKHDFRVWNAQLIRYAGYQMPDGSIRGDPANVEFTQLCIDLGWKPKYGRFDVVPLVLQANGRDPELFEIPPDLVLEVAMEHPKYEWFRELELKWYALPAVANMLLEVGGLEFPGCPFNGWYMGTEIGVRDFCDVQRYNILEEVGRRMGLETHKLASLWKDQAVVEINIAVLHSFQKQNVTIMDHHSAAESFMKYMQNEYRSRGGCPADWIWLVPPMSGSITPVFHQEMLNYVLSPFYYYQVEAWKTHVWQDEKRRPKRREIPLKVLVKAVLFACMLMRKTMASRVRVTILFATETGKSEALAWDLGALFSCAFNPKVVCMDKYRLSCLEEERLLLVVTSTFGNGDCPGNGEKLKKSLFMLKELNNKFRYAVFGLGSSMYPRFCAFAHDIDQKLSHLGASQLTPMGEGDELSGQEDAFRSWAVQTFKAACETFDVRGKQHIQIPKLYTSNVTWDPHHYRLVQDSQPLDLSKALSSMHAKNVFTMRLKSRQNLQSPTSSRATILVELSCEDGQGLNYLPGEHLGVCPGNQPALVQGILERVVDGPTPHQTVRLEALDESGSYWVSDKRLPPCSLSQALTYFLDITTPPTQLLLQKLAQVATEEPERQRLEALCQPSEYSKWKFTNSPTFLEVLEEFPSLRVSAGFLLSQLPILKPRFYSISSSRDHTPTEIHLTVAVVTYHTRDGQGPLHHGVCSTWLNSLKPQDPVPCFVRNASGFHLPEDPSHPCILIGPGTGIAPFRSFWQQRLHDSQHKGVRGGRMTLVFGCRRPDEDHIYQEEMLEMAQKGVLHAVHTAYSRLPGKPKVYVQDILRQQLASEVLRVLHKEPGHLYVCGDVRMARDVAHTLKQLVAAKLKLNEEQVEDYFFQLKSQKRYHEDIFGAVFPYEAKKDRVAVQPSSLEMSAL

Row | Structure (SMILES) | Ki
1 | N=C(N)CCCCC(N)C(=O)O (configuration not stated) | > 3000 µM
2 | N=C(N)NOCC[C@H](N)C(=O)O [CANAVANINE] | 220 µM
